Assay [1] relates to TNF-α-induced IL-8 secretion from THP-1 cells. In words: cytokine protein measurement (LEGENDPlex). The class given is cell-based, human. The settings on record: 10 ng/mL TNF-α, 1 μM compound. The method, then: For cytokine expression determination, 5x10^5 THP-1 cells were plated on 12 well plates the day prior to treatment with 10 ng/mL recombinant human TNF -α (aa 77-233) protein (R&D systems, 10291 -TA) and compounds at a final concentration of 0.1 % DMSO. In all cases, total […]
Cytokine protein measurements
THP-1 cells were plated and treated as for the quantitative RT -PCR, then the cell culture medium was harvested by pelleting the cells (300g, 3min) and taking the supernatant .
Cytokine protein concentrations were determined using the LEGENDPlexTM Human Inflammation Panel 1 (BioLegend) assay with 25 µL of culture medium following the manufacturer’s instructi ns. amp es were ana zed f w c t metr n an rtessa Biosciences), and data was analyzed using LEGENDPlex software (BioLegend).

Assay [2] relates to immune cell recruitment to the popliteal lymph node. In words: TNF-α induced inflammation model, flow cytometry of pLN. The class given is in vivo, mouse. The settings on record: mice, flow cytometry 5 h post-injection of rmTNF-α, vs control group. (In general: A flow cytometer gives signals particle by particle.)

Structures are written as SMILES.

For `Cc1cc2c(NC(=O)c3cc(NC(=O)c4ccco4)cc(-c4ccn(C)n4)c3)cccc2nn1` [Compound 2], the “TNF-α-induced IL-8 protein secretion” value in assay [1] is reported as “significantly reducing its TNF-α-induced secretion”. Besides, the “recruitment of lymphocytes (T and B cells), dendritic cells and neutrophils to the pLN” value in assay [2] was “significantly inhibited the recruitment of lymphocytes”.
